Test results reported in paper PMC11172384, “Specific Mutations Reverse Regulatory Effects of Adenosine Phosphates and Increase Their Binding Stoichiometry in CBS Domain-Containing Pyrophosphatase” (International Journal of Molecular Sciences, 2024).
Values belong to the compound of their own block, whether it stands above or below them.

Experiments:
[1] = target: T1, dhPPase (Desulfitobacterium hafniense CBS-PPase) (Desulfitobacterium hafniense, UniProt B8FP42); assay: isothermal titration calorimetry, single-binding-site model; details: read-out: KN
T1 construct: gene Dhaf_1515; full-length, tag-less, recombinant in E. coli BL21 (pET-42b); homotetramer
T1 sequence (B8FP42 1-544): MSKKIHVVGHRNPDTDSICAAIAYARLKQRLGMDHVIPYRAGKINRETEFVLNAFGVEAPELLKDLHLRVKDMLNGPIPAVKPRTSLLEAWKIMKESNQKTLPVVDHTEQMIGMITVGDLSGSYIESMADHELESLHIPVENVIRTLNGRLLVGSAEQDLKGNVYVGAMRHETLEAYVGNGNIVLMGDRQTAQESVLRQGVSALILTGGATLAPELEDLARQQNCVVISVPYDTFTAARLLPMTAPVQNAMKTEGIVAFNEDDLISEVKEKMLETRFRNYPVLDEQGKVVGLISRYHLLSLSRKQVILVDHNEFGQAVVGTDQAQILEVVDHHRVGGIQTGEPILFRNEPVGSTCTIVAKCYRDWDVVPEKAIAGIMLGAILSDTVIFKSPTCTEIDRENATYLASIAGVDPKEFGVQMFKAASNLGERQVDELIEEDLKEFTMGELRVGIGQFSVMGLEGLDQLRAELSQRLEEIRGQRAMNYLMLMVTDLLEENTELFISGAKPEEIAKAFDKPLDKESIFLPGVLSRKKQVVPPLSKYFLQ
From the text: (§1) isothermal titration calorimetry, single-binding-site model on dhPPase (Desulfitobacterium hafniense CBS-PPase)

[2] = target: T2, dhPPase (Desulfitobacterium hafniense CBS-PPase) (Desulfitobacterium hafniense, UniProt B8FP42, K100A); assay: as above; details: read-out: KN
T2 construct: gene Dhaf_1515; full-length, tag-less, recombinant in E. coli BL21 (pET-42b); homotetramer
From the text: as §1

[3] = target: T3, dhPPase (Desulfitobacterium hafniense CBS-PPase) (Desulfitobacterium hafniense, UniProt B8FP42, E126A); assay: as above; details: read-out: KN
T3 construct: gene Dhaf_1515; full-length, tag-less, recombinant in E. coli BL21 (pET-42b); homotetramer
From the text: as §1

[4] = target: T4, dhPPase (Desulfitobacterium hafniense CBS-PPase) (Desulfitobacterium hafniense, UniProt B8FP42, G118M); assay: as above; details: read-out: KN
T4 construct: gene Dhaf_1515; full-length, tag-less, recombinant in E. coli BL21 (pET-42b); homotetramer
From the text: as §1

[5] = target: T5, dhPPase (Desulfitobacterium hafniense CBS-PPase) (Desulfitobacterium hafniense, UniProt B8FP42, G118A); assay: as above; details: read-out: KN
T5 construct: gene Dhaf_1515; full-length, tag-less, recombinant in E. coli BL21 (pET-42b); homotetramer
From the text: as §1

[6] = target: T6, dhPPase (Desulfitobacterium hafniense CBS-PPase) (Desulfitobacterium hafniense, UniProt B8FP42, K95A); assay: as above; details: read-out: KN
T6 construct: gene Dhaf_1515; full-length, tag-less, recombinant in E. coli BL21 (pET-42b); homotetramer
From the text: as §1

[7] = target: T7, dhPPase (Desulfitobacterium hafniense CBS-PPase) (Desulfitobacterium hafniense, UniProt B8FP42, V117T); assay: activation of PPi hydrolysis, continuous Pi assay, Hill fit; format: biochemical; details: read-out: Adenosine Phosphate and Parameter Value ^a / Ap4A / K
T7 construct: gene Dhaf_1515; full-length, tag-less, recombinant in E. coli BL21 (pET-42b); homotetramer
From the text: (§2) activation of PPi hydrolysis, continuous Pi assay, Hill fit on dhPPase (Desulfitobacterium hafniense CBS-PPase)

[8] = target: T4, dhPPase (Desulfitobacterium hafniense CBS-PPase); assay: as above; format: biochemical; details: read-out: Adenosine Phosphate and Parameter Value ^a / Ap4A / K
From the text: as §2

[9] = target: T2, dhPPase (Desulfitobacterium hafniense CBS-PPase); assay: as above; format: biochemical; details: read-out: Adenosine Phosphate and Parameter Value ^a / Ap4A / K
From the text: as §2

[10] = target: T8, dhPPase (Desulfitobacterium hafniense CBS-PPase) (Desulfitobacterium hafniense, UniProt B8FP42, V117A); assay: as above; format: biochemical; details: read-out: Adenosine Phosphate and Parameter Value ^a / Ap4A / K
T8 construct: gene Dhaf_1515; full-length, tag-less, recombinant in E. coli BL21 (pET-42b); homotetramer
From the text: as §2

[11] = target: T1, dhPPase (Desulfitobacterium hafniense CBS-PPase); assay: continuous Pi assay; format: biochemical; details: pH 7.2, 25 °C, 5.23 mM MgCl2, 140 µM PPi

T2 sequence (B8FP42 entry or part of it K100A): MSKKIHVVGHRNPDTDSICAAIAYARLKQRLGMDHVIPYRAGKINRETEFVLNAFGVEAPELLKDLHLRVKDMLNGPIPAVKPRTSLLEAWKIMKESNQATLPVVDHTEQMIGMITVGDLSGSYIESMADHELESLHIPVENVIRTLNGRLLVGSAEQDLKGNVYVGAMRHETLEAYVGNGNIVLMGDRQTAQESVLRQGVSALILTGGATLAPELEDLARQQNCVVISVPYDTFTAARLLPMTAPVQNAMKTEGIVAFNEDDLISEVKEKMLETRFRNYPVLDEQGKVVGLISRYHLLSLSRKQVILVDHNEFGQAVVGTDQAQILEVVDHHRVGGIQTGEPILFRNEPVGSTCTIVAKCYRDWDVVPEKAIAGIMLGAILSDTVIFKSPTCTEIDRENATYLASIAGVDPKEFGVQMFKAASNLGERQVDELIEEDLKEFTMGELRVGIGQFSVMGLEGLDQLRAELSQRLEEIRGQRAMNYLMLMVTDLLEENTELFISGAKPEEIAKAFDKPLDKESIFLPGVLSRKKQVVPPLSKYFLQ
T4 sequence (B8FP42 entry or part of it G118M): as the sequence (B8FP42 entry or part of it K100A) above, with A100K, G118M counted along it
T3 sequence (B8FP42 entry or part of it E126A): as the sequence (B8FP42 entry or part of it K100A) above, with A100K, E126A counted along it
T5 sequence (B8FP42 entry or part of it G118A): as the sequence (B8FP42 entry or part of it K100A) above, with A100K, G118A counted along it
T8 sequence (B8FP42 entry or part of it V117A): as the sequence (B8FP42 entry or part of it K100A) above, with A100K, V117A counted along it
T7 sequence (B8FP42 entry or part of it V117T): as the sequence (B8FP42 entry or part of it K100A) above, with A100K, V117T counted along it
T6 sequence (B8FP42 entry or part of it K95A): as the sequence (B8FP42 entry or part of it K100A) above, with K95A, A100K counted along it

SMILES: Nc1ncnc2c1ncn2[C@@H]1O[C@H](COP(=O)(O)OP(=O)(O)O)[C@@H](O)[C@H]1O [ADP]
Kd [1]: 1000 ± 200 nM
Kd [2]: 6000 ± 2000 nM
Kd [3]: 600 ± 100 nM

SMILES: Nc1ncnc2c1ncn2[C@@H]1O[C@H](COP(=O)(O)O)[C@@H](O)[C@H]1O [AMP]
Kd [1]: 800 ± 300 nM
Kd [4]: 520 ± 70 nM
Kd [5]: 4200 ± 600 nM
Kd [2]: 1300 ± 200 nM
Kd [6]: 4600 ± 700 nM

SMILES: O=P(O)(O)OP(=O)(O)O [PPi]
continuous Pi assay [11]: The initial rates of PPi hydrolysis were measured using a continuous Pi assay

Next, values leading:

Kd [1]: 2100 ± 300 nM
SMILES: Nc1ncnc2c1ncn2[C@@H]1O[C@H](COP(=O)(O)OP(=O)(O)OP(=O)(O)O)[C@@H](O)[C@H]1O [ATP]

EC50 [7]: 1.3 ± 0.05 nM
EC50 [8]: 28 ± 1 nM
EC50 [9]: 11.5 ± 0.1 nM
EC50 [10]: 120 ± 10 nM
SMILES: Nc1ncnc2c1ncn2[C@@H]1O[C@H](COP(=O)(O)OP(=O)(O)OP(=O)(O)OP(=O)(O)OC[C@H]2O[C@@H](n3cnc4c(N)ncnc43)[C@H](O)[C@@H]2O)[C@@H](O)[C@H]1O [Ap4A]
